From patent US20170320848A1, “COMPOUNDS FOR USE IN ANTHELMINTHIC TREATMENT” (Bayer Animal Health GMBH, priority 2014, published 2017)

Assays:
[1] = tested on: Haemonchus contortus; test: Haemonchus contortus assay (HAEMCO), larval mortality; type: cell-based; conditions: application rate 20 ppm, after 5 days; for mortality at 20 ppm: Haemonchus contortus, 120 h, read-out: activity (percentage of larval mortality)
Method: Haemonchus Contortus—Assay (HAEMCO)
(§1) Solvent: dimethyl sulfoxide
(§2) To produce a suitable preparation, 10 mg of active compound are dissolved in 0.5 ml solvent, and the concentrate is diluted with “Ringer's solution” to the desired concentration.
Approximately 40 larvae of the red stomach worm (Haemonchus contortus) are transferred into a test tube containing compound solution.
After 5 days percentage of larval mortality are recorded. 100% efficacy means all larvae are killed, 0% efficacy means no larvae are killed.

[2] = tested on: Cooperia curticei; test: Cooperia curticei assay (COOPCU), larval mortality; type: cell-based; conditions: Cooperia curticei, 120 h; application rate 20 ppm, after 5 days; read-out: activity (percentage of larval mortality)
Method: Cooperia Curticei—Assay (COOPCU)
as §1, §2
Approximately 40 nematode larvae (Cooperia curticei) are transferred into a test tube containing the compound solution.
After 5 days percentage of larval mortality is recorded. 100% efficacy means all larvae are killed; 0% efficacy means no larvae are killed.

[3] = Measurement of LogP values by HPLC on reversed phase columns (EEC directive 79/831 Annex V.A8); type: physicochemical; conditions: acidic range, 0.1% formic acid in water and acetonitrile as eluent
[4] = tested on: Meloidogyne incognita; test: Meloidogyne incognita assay (MELGIN), gall formation on salad seedlings; type: in vivo; conditions: application rate 20 ppm, after 14 days
Method: Meloidogyne Incognita—Assay (MELGIN)
Solvent: 125.0 parts by weight of acetone
To produce a suitable preparation, 1 part by weight of active compound is mixed with the stated amount of solvent, and the concentrate is diluted with water to the desired concentration.
Vessels are filled with sand, a solution of the active ingredient, a suspension containing eggs and larvae of the southern root-knot nematode (Meloidogyne incognita) and salad seeds. The salad seeds germinate and the seedlings grow. Galls develop in the roots.
After 14 days the nematicidal activity is determined on the basis of the percentage of gall formation. 100% means no galls were found and 0% means the number of galls found on the roots of the treated plants was equal to that in untreated control plants.

SMILES | mortality at 20 ppm [1] [%] | mortality at 20 ppm [2] [%] | logP (HCOOH)[a] [3] | nematicidal activity (percentage of gall formation) [4] [%] | activity (percentage of larval mortality) [1] [%]
O=C(NCC(F)(F)c1ccc(-c2ccc(OC(F)(F)F)cc2)cc1F)c1ccccc1C(F)(F)F [Example 14] | 90 | 100 | – | – | –
O=C(NCC(F)(F)c1ccc(-c2ccc(OC(F)(F)F)cc2)cc1C(F)(F)F)c1ccccc1C(F)(F)F [Example 15] | 90 | 100 | – | – | –
O=C(NCC(F)(F)c1ccc(-c2cccc(C(F)F)c2)cc1Cl)c1ccccc1C(F)(F)F [Example 43] | – | – | 4.03 | 100 | –
O=C(NCC(F)(F)c1c(F)cc(-c2ccc(SC(F)(F)F)cc2)cc1F)c1ccccc1C(F)(F)F [Example 47] | – | – | 4.82 | 90 | –
Cc1cc(-c2ccc(C#N)cc2)ccc1C(F)(F)CNC(=O)c1ccccc1C(F)(F)F [Example 49] | – | – | 3.7 | 100 | –
Cc1cc(-c2ccc(SC(F)(F)F)cc2)ccc1C(F)(F)CNC(=O)c1ccccc1C(F)(F)F [Example 50] | – | – | 5.08 | 100 | –
O=C(NCC(F)(F)c1ccc(-c2ccc(F)cc2)cc1C(F)(F)F)c1nccnc1C(F)(F)F [Example 52] | – | – | – | 100 | –
O=C(NCC(F)(F)c1ccc(-c2ccc(Cl)cc2)cc1C(F)(F)F)c1nccnc1C(F)(F)F [Example 53] | – | – | – | 100 | –
O=C(NCC(F)(F)c1ccc(-c2ccc(F)cc2)cc1Cl)c1c(F)cccc1F [Example 60] | – | – | 3.85 | 100 | –
O=C(NCC(F)(F)c1ccc(-c2ccc(F)cc2)cc1Cl)c1nccnc1C(F)(F)F [Example 61] | – | – | 3.85 | 100 | –
O=C(NCC(F)(F)c1ccc(-c2ccc(F)cc2)cc1Cl)c1ncccc1C(F)(F)F [Example 62] | – | – | 4.05 | 100 | –
O=C(NCC(F)(F)c1ccc(-c2ccc(F)cc2)cc1Cl)c1cccnc1Cl [Example 63] | – | – | 3.46 | 100 | –
O=C(NCC(F)(F)c1ccc(-c2ccc(F)cc2)cc1Cl)c1cccnc1I [Example 64] | – | – | 3.56 | 100 | –
O=C(NCC(F)(F)c1ccc(-c2cccc(OC(F)F)c2)cc1Cl)c1ccccc1C(F)(F)F [Example 65] | – | – | 4.08 | 100 | –
O=C(NCC(F)(F)c1ccc(-c2ccc(OC(F)F)cc2)cc1Cl)c1ccccc1C(F)(F)F [Example 68] | – | – | 4.03 | 100 | –
O=C(NCC(F)(F)c1ccc(-c2cccc(Cl)c2)cc1Cl)c1ccccc1C(F)(F)F [Example 69] | – | – | 4.6 | 100 | –
O=C(NCC(F)(F)c1ccc(-c2ccc(Cl)c(Cl)c2)cc1Cl)c1ccccc1C(F)(F)F [Example 70] | – | – | 4.93 | 90 | –
O=C(NCC(F)(F)c1ccc(-c2ccc(F)c(Cl)c2)cc1Cl)c1ccccc1C(F)(F)F [Example 94] | – | – | 4.57 | 100 | –

SMILES | mortality at 20 ppm [1] [%] | mortality at 20 ppm [2] [%] | logP (HCOOH)[a] [3] | nematicidal activity (percentage of gall formation) [4] [%] | activity (percentage of larval mortality) [1] [%]
N#Cc1cc(-c2ccc(C(F)(F)CNC(=O)c3ccccc3C(F)(F)F)c(Cl)c2)ccc1Cl [Example 95] | – | – | 4.07 | 100 | –
N#Cc1ccc(-c2ccc(C(F)(F)CNC(=O)c3ccccc3C(F)(F)F)c(Cl)c2)cc1C(F)(F)F [Example 97] | – | – | 4.12 | – | 80
O=C(NCC(F)(F)c1ccc(-c2cc(F)cc(F)c2)cc1F)c1ccccc1C(F)(F)F [Example 101] | – | – | – | 100 | –
N#Cc1ccc(-c2ccc(C(F)(F)CNC(=O)c3ccccc3C(F)(F)F)c(Cl)c2)cc1Cl [Example 105] | – | – | 4.02 | 100 | –
O=C(NCC(F)(F)c1c(F)cc(-c2cc(F)c(F)c(F)c2)cc1F)c1ccccc1C(F)(F)F [Example 108] | – | – | 4.2 | 90 | –
Cc1cc(-c2cc(F)c(F)c(F)c2)ccc1C(F)(F)CNC(=O)c1ccccc1C(F)(F)F [Example 109] | – | – | 4.48 | 100 | –
O=C(NCC(F)(F)c1ccc(-c2cc(F)c(F)c(F)c2)cc1Cl)c1ncccc1C(F)(F)F [Example 112] | – | – | 4.23 | 100 | –
O=C(NCC(F)(F)c1ccc(-c2cc(F)c(F)c(F)c2)cc1Cl)c1ccccc1Cl [Example 115] | – | – | 4.23 | 100 | –
O=C(NCC(F)(F)c1ccc(-c2cc(F)c(F)c(F)c2)cc1Cl)c1c(F)cccc1F [Example 117] | – | – | 4.05 | 100 | –
Cc1cc(-c2ccc(F)cc2F)ccc1C(F)(F)CNC(=O)c1ccccc1C(F)(F)F [Example 119] | – | – | 4.15 | 100 | –
Cc1cc(-c2ccc(F)c(F)c2)ccc1C(F)(F)CNC(=O)c1ccccc1C(F)(F)F [Example 120] | – | – | 4.2 | 100 | –
Cc1cc(-c2ccc(Cl)c(Cl)c2)ccc1C(F)(F)CNC(=O)c1ccccc1C(F)(F)F [Example 122] | – | – | 4.98 | 100 | –
Cc1cc(-c2cccc(Cl)c2)ccc1C(F)(F)CNC(=O)c1ccccc1C(F)(F)F [Example 123] | – | – | 4.56 | 100 | –
Cc1cc(-c2ccc(F)c(Cl)c2)ccc1C(F)(F)CNC(=O)c1ccccc1C(F)(F)F [Example 124] | – | – | 4.56 | 100 | –
Cc1cc(-c2ccc(Cl)c(F)c2)ccc1C(F)(F)CNC(=O)c1ccccc1C(F)(F)F [Example 125] | – | – | 4.61 | 100 | –
Cc1cc(-c2cc(F)c(Cl)c(F)c2)ccc1C(F)(F)CNC(=O)c1ccccc1C(F)(F)F [Example 126] | – | – | 4.77 | 90 | –
Cc1cc(-c2cccc(F)c2F)ccc1C(F)(F)CNC(=O)c1ccccc1C(F)(F)F [Example 127] | – | – | 4.1 | 90 | –
